Numbers after ± are expanded uncertainties.
Test: xn = mol fraction of the nth substance listed
Conditions: 100 kPa, Liquid; for electrical conductivity: Alternating current cell with electrodes; for viscosity: Capillary tube (Ostwald / Ubbelohde) method; for mass density: Vibrating tube method

Cn1cc[n+](C)c1.O=S(=O)([N-]S(=O)(=O)C(F)(F)F)C(F)(F)F [1,3-dimethylimidazolium bis((trifluoromethyl)sulfonyl)amide] + O=C1CCCO1
Conditions | electrical conductivity [S/m] | mass density [kg/m3] | viscosity [mPa·s]
298.15 K, x1 = 0.05124 | 1.13 ± 0.037 | 1190.03 ± 4.9 | 2.27 ± 0.09
298.15 K, x1 = 0.09948 | 1.58 ± 0.048 | 1240.94 ± 4.8 | 2.86 ± 0.12
298.15 K, x1 = 0.1551 | 1.75 ± 0.052 | 1289.73 ± 4.8 | 3.61 ± 0.15
298.15 K, x1 = 0.2007 | 1.77 ± 0.053 | 1323.77 ± 4.7 | 4.44 ± 0.18
298.15 K, x1 = 0.2991 | 1.73 ± 0.052 | 1383.3 ± 4.7 | 6.56 ± 0.27
298.15 K, x1 = 0.4002 | 1.6 ± 0.048 | 1430.37 ± 4.7 | 9.39 ± 0.38
298.15 K, x1 = 0.4998 | 1.47 ± 0.044 | 1467.09 ± 4.7 | 12.79 ± 0.52
298.15 K, x1 = 0.6127 | 1.29 ± 0.039 | 1500.46 ± 4.7 | 17.69 ± 0.72
298.15 K, x1 = 0.7009 | 1.17 ± 0.035 | 1522 ± 4.7 | 22.05 ± 0.9
298.15 K, x1 = 0.8002 | 1.05 ± 0.032 | 1542.63 ± 4.7 | 27.52 ± 1.1
298.15 K, x1 = 0.8997 | 0.905 ± 0.027 | 1560.16 ± 4.7 | 33.41 ± 1.4
298.15 K, x1 = 1 | 0.774 ± 0.023 | 1575.42 ± 4.7 | 39.43 ± 1.6
303.15 K, x1 = 0.05124 | 1.22 ± 0.04 | 1185.01 ± 4.9 | 2.08 ± 0.09
303.15 K, x1 = 0.09948 | 1.72 ± 0.052 | 1235.89 ± 4.8 | 2.61 ± 0.11
303.15 K, x1 = 0.1551 | 1.9 ± 0.057 | 1284.67 ± 4.8 | 3.24 ± 0.13
303.15 K, x1 = 0.2007 | 1.94 ± 0.058 | 1318.66 ± 4.7 | 4 ± 0.16
303.15 K, x1 = 0.2991 | 1.9 ± 0.057 | 1378.16 ± 4.7 | 5.81 ± 0.24
303.15 K, x1 = 0.4002 | 1.76 ± 0.053 | 1425.2 ± 4.7 | 8.35 ± 0.34
303.15 K, x1 = 0.4998 | 1.63 ± 0.049 | 1461.93 ± 4.7 | 11.04 ± 0.45
303.15 K, x1 = 0.6127 | 1.45 ± 0.044 | 1495.28 ± 4.7 | 15.09 ± 0.61
303.15 K, x1 = 0.7009 | 1.32 ± 0.04 | 1516.83 ± 4.7 | 18.61 ± 0.76
303.15 K, x1 = 0.8002 | 1.19 ± 0.036 | 1537.44 ± 4.7 | 22.9 ± 0.93
303.15 K, x1 = 0.8997 | 1.04 ± 0.031 | 1554.97 ± 4.7 | 27.66 ± 1.1
303.15 K, x1 = 1 | 0.915 ± 0.027 | 1570.25 ± 4.7 | 32.51 ± 1.3
308.15 K, x1 = 0.05124 | 1.32 ± 0.043 | 1180.03 ± 4.9 | 1.85 ± 0.08
308.15 K, x1 = 0.09948 | 1.85 ± 0.056 | 1230.85 ± 4.8 | 2.39 ± 0.1
308.15 K, x1 = 0.1551 | 2.06 ± 0.062 | 1279.57 ± 4.8 | 3.02 ± 0.12
308.15 K, x1 = 0.2007 | 2.09 ± 0.063 | 1313.53 ± 4.7 | 3.62 ± 0.15
308.15 K, x1 = 0.2991 | 2.07 ± 0.062 | 1372.98 ± 4.7 | 5.23 ± 0.21
308.15 K, x1 = 0.4002 | 1.93 ± 0.058 | 1419.99 ± 4.7 | 7.3 ± 0.3
308.15 K, x1 = 0.4998 | 1.79 ± 0.054 | 1456.71 ± 4.7 | 9.7 ± 0.4
308.15 K, x1 = 0.6127 | 1.61 ± 0.048 | 1490.05 ± 4.7 | 12.98 ± 0.53
308.15 K, x1 = 0.7009 | 1.47 ± 0.044 | 1511.6 ± 4.7 | 16 ± 0.65
308.15 K, x1 = 0.8002 | 1.34 ± 0.04 | 1532.21 ± 4.7 | 19.53 ± 0.79
308.15 K, x1 = 0.8997 | 1.18 ± 0.035 | 1549.75 ± 4.7 | 23.46 ± 0.95
308.15 K, x1 = 1 | 1.06 ± 0.032 | 1565.01 ± 4.7 | 27.47 ± 1.1
313.15 K, x1 = 0.05124 | 1.4 ± 0.046 | 1175.06 ± 4.9 | 1.71 ± 0.07
313.15 K, x1 = 0.09948 | 1.98 ± 0.06 | 1225.8 ± 4.8 | 2.2 ± 0.09
313.15 K, x1 = 0.1551 | 2.19 ± 0.066 | 1274.45 ± 4.8 | 2.77 ± 0.11
313.15 K, x1 = 0.2007 | 2.25 ± 0.068 | 1308.37 ± 4.7 | 3.3 ± 0.14
313.15 K, x1 = 0.2991 | 2.23 ± 0.067 | 1367.77 ± 4.7 | 4.7 ± 0.19
313.15 K, x1 = 0.4002 | 2.09 ± 0.063 | 1414.76 ± 4.7 | 6.5 ± 0.27
313.15 K, x1 = 0.4998 | 1.95 ± 0.059 | 1451.46 ± 4.7 | 8.6 ± 0.35
313.15 K, x1 = 0.6127 | 1.76 ± 0.053 | 1484.8 ± 4.7 | 11.46 ± 0.47
313.15 K, x1 = 0.7009 | 1.61 ± 0.048 | 1506.34 ± 4.7 | 13.89 ± 0.56
313.15 K, x1 = 0.8002 | 1.48 ± 0.045 | 1526.95 ± 4.7 | 16.86 ± 0.68
313.15 K, x1 = 0.8997 | 1.32 ± 0.04 | 1544.49 ± 4.7 | 20.08 ± 0.82
313.15 K, x1 = 1 | 1.2 ± 0.036 | 1559.73 ± 4.7 | 23.43 ± 0.95
318.15 K, x1 = 0.05124 | 1.5 ± 0.049 | 1170.08 ± 4.9 | 1.62 ± 0.07
318.15 K, x1 = 0.09948 | 2.12 ± 0.065 | 1220.75 ± 4.8 | 2.04 ± 0.08
318.15 K, x1 = 0.1551 | 2.35 ± 0.071 | 1269.35 ± 4.8 | 2.57 ± 0.11
318.15 K, x1 = 0.2007 | 2.42 ± 0.073 | 1303.25 ± 4.7 | 3.03 ± 0.12
318.15 K, x1 = 0.2991 | 2.4 ± 0.072 | 1362.59 ± 4.7 | 4.27 ± 0.17
318.15 K, x1 = 0.4002 | 2.25 ± 0.067 | 1409.55 ± 4.7 | 5.81 ± 0.24
318.15 K, x1 = 0.4998 | 2.12 ± 0.064 | 1446.23 ± 4.7 | 7.64 ± 0.31
318.15 K, x1 = 0.6127 | 1.92 ± 0.058 | 1479.57 ± 4.7 | 10.05 ± 0.41
318.15 K, x1 = 0.7009 | 1.77 ± 0.053 | 1501.11 ± 4.7 | 12.18 ± 0.5
318.15 K, x1 = 0.8002 | 1.65 ± 0.049 | 1521.73 ± 4.7 | 14.75 ± 0.6
318.15 K, x1 = 0.8997 | 1.49 ± 0.045 | 1539.27 ± 4.7 | 17.45 ± 0.71
318.15 K, x1 = 1 | 1.35 ± 0.041 | 1554.49 ± 4.7 | 20.25 ± 0.82
323.15 K, x1 = 0.05124 | 1.59 ± 0.052 | 1165.1 ± 4.9 | 1.52 ± 0.06
323.15 K, x1 = 0.09948 | 2.25 ± 0.069 | 1215.71 ± 4.8 | 1.89 ± 0.08
323.15 K, x1 = 0.1551 | 2.51 ± 0.076 | 1264.27 ± 4.8 | 2.39 ± 0.1
323.15 K, x1 = 0.2007 | 2.59 ± 0.078 | 1298.14 ± 4.7 | 2.79 ± 0.11
323.15 K, x1 = 0.2991 | 2.59 ± 0.078 | 1357.45 ± 4.7 | 3.89 ± 0.16
323.15 K, x1 = 0.4002 | 2.45 ± 0.074 | 1404.4 ± 4.7 | 5.3 ± 0.22
323.15 K, x1 = 0.4998 | 2.31 ± 0.069 | 1441.07 ± 4.7 | 6.82 ± 0.28
323.15 K, x1 = 0.6127 | 2.11 ± 0.063 | 1474.41 ± 4.7 | 8.92 ± 0.36
323.15 K, x1 = 0.7009 | 1.96 ± 0.059 | 1495.96 ± 4.7 | 10.71 ± 0.44
323.15 K, x1 = 0.8002 | 1.82 ± 0.055 | 1516.59 ± 4.7 | 12.9 ± 0.52
323.15 K, x1 = 0.8997 | 1.67 ± 0.05 | 1534.13 ± 4.7 | 15.17 ± 0.62
323.15 K, x1 = 1 | 1.51 ± 0.045 | 1549.34 ± 4.7 | 17.72 ± 0.72

Source: the NIST ThermoML archive (doi:10.1016/j.jct.2017.10.004)
